Reference: ChEMBL document CHEMBL2331252, “Facile one-pot synthesis of novel dispirooxindole-pyrrolidine derivatives and their antimicrobial and anticancer activity against A549 human lung adenocarcinoma cancer cell line” (Bioorg Med Chem Lett, 2013)
Values after ≈ are worked out from the molar mass of the structure shown. Active and inactive are the calls of the source. No cut-off for these calls is given here.

Assays:
Klebsiella aerogenes [1] = assay: Antibacterial activity against Enterobacter aerogenes MTCC 111 at 1 mg/disc after 24 hrs by disc diffusion method; type: functional
Staphylococcus aureus [2] = assay: Antibacterial activity against Staphylococcus aureus MTCC 96 at 1 mg/disc after 24 hrs by disc diffusion method; type: functional
Candida albicans [3] = assay: Antifungal activity against Candida albicans MTCC 227 after 48 to 72 hrs; type: functional
A549 [4] = assay: Cytotoxicity against human A549 cells assessed as cell death at 100 ug/ml by MTT assay; type: functional
A549 [5] = assay: Cytotoxicity against human A549 cells assessed as cell death at 50 ug/ml by MTT assay; type: functional
[6] = Antifungal activity against Malassezia pachydermatis at 1 mg/disc after 48 hrs by disc diffusion method; type: functional
A549 [7] = assay: Cytotoxicity against human A549 cells assessed as cell death at 200 ug/ml by MTT assay; type: functional
Shigella flexneri [8] = assay: Antibacterial activity against Shigella flexneri MTCC 1457 after 24 hrs; type: functional; conditions: MTCC 1457, 24 h
Staphylococcus aureus [9] = assay: Antibacterial activity against Staphylococcus aureus MTCC 96 after 24 hrs; type: functional
Candida albicans [10] = assay: Antifungal activity against Candida albicans MTCC 227 at 1 mg/disc after 48 hrs by disc diffusion method; type: functional
Klebsiella pneumoniae [11] = assay: Antibacterial activity against Klebsiella pneumoniae MTCC 109 after 24 hrs; type: functional; conditions: MTCC 109, 24 h
Klebsiella pneumoniae [12] = assay: Antibacterial activity against Klebsiella pneumoniae MTCC 109 at 1 mg/disc after 24 hrs by disc diffusion method; type: functional
Micrococcus luteus [13] = assay: Antibacterial activity against Micrococcus luteus MTCC 106 at 1 mg/disc after 24 hrs by disc diffusion method; type: functional
Salmonella typhimurium [14] = assay: Antibacterial activity against Salmonella typhimurium MTCC 1251 after 24 hrs; type: functional, Salmonella enterica subsp. enterica serovar Typhimurium
Micrococcus luteus [15] = assay: Antibacterial activity against Micrococcus luteus MTCC 106 after 24 hrs; type: functional; conditions: MTCC 106, 24 h
Salmonella typhimurium [16] = assay: Antibacterial activity against Salmonella typhimurium MTCC 1251 at 1 mg/disc after 24 hrs by disc diffusion method; type: functional, Salmonella enterica subsp. enterica serovar Typhimurium; conditions: for inhibition: Salmonella enterica subsp. enterica serovar Typhimurium
Proteus vulgaris [17] = assay: Antibacterial activity against Proteus vulgaris MTCC 1771 after 24 hrs; type: functional
Shigella flexneri [18] = assay: Antibacterial activity against Shigella flexneri MTCC 1457 at 1 mg/disc after 24 hrs by disc diffusion method; type: functional
Klebsiella aerogenes [19] = assay: Antibacterial activity against Enterobacter aerogenes MTCC 111 after 24 hrs; type: functional
Proteus vulgaris [20] = assay: Antibacterial activity against Proteus vulgaris MTCC 1771 at 1 mg/disc after 24 hrs by disc diffusion method; type: functional
Staphylococcus aureus [21] = assay: Antibacterial activity against methicillin-resistant Staphylococcus aureus at 1 mg/disc after 24 hrs by disc diffusion method; type: functional
Staphylococcus aureus [22] = assay: Antibacterial activity against methicillin-resistant Staphylococcus aureus after 24 hrs; type: functional
[23] = Salmonella enterica, MTCC 1251, 24 h
[24] = Salmonella enterica subsp. enterica serovar Typhimurium

Compound | inhibition zone (IZ) (Klebsiella aerogenes [1]) | MIC (Candida albicans [3]) | Activity (A549 [4]) | Activity (A549 [5]) | inhibition [6] | Activity (A549 [7]) | MIC (Shigella flexneri [8]) | MIC (Klebsiella pneumoniae [11]) | inhibition zone (IZ) (Klebsiella pneumoniae [12]) | inhibition zone (IZ) (Micrococcus luteus [13]) | MIC (Salmonella typhimurium [14]; [23]) | MIC (Micrococcus luteus [15]) | inhibition zone (IZ) (Salmonella typhimurium [16]) | inhibition zone (IZ) (Shigella flexneri [18]) | MIC (Klebsiella aerogenes [19]; MTCC 111, 24 h) | inhibition zone (IZ) (Staphylococcus aureus [21]) | MIC (Staphylococcus aureus [22]) | inhibition zone (IZ) (Staphylococcus aureus [2]) | MIC (Staphylococcus aureus [9]; MTCC 96, 24 h) | inhibition zone (IZ) (Candida albicans [10]) | also measured
Cc1ccc2c(c1)[C@]1(C(=O)N2)N(C)C[C@](C#N)(C(=O)c2c[nH]c3ccccc23)[C@]12C(=O)Nc1ccccc12 | 9 mm | inactive | 56.34% | 31.6% | inactive | 62.96% | 125 µg/mL (≈ 249 µM) | 500 µg/mL (≈ 997 µM) | 9 mm | 10 mm | 500 µg/mL (≈ 997 µM) | 500 µg/mL (≈ 997 µM) | 10 mm | 11 mm | 500 µg/mL (≈ 997 µM) | 10 mm | 500 µg/mL (≈ 997 µM) |  |  |  | inhibition (Staphylococcus aureus [2]): inactive; MIC (Staphylococcus aureus [9]): inactive; inhibition (Candida albicans [10]): inactive; MIC (Proteus vulgaris [17]; MTCC 1771, 24 h): 500 µg/mL (≈ 997 µM); inhibition zone (IZ) (Proteus vulgaris [20]): 10 mm
CCN1C(=O)[C@@]2(c3ccccc31)N(C)C[C@](C#N)(C(=O)c1c[nH]c3ccccc13)[C@]21C(=O)Nc2ccccc21 | 8 mm | 500 µg/mL (≈ 970 µM) | 18.61% | 7.16% | inactive | 26.58% | 500 µg/mL (≈ 970 µM) | 500 µg/mL (≈ 970 µM) | 10 mm | 11 mm | 500 µg/mL (≈ 970 µM) | 500 µg/mL (≈ 970 µM) | 7 mm | 9 mm | 500 µg/mL (≈ 970 µM) | 11 mm | 500 µg/mL (≈ 970 µM) | 9 mm | 500 µg/mL (≈ 970 µM) | 8 mm | MIC (Proteus vulgaris [17]; MTCC 1771, 24 h): 500 µg/mL (≈ 970 µM); inhibition zone (IZ) (Proteus vulgaris [20]): 9 mm
CCCCN1C(=O)[C@@]2(c3ccccc31)N(C)C[C@](C#N)(C(=O)c1c[nH]c3ccccc13)[C@]21C(=O)Nc2ccccc21 | 10 mm | 500 µg/mL (≈ 920 µM) | 19.6% | 4.27% | inactive | 32.25% | 500 µg/mL (≈ 920 µM) | 500 µg/mL (≈ 920 µM) | 8 mm | 8 mm | 500 µg/mL (≈ 920 µM) | 500 µg/mL (≈ 920 µM) | 10 mm | 9 mm | 500 µg/mL (≈ 920 µM) | 11 mm | 500 µg/mL (≈ 920 µM) | 9 mm | 500 µg/mL (≈ 920 µM) | 8 mm | MIC (Proteus vulgaris [17]): inactive; inhibition (Proteus vulgaris [20]): inactive
CN1C[C@](C#N)(C(=O)c2c[nH]c3ccccc23)[C@]2(C(=O)Nc3ccccc32)[C@@]12C(=O)Nc1ccc(F)cc12 | 9 mm | 125 µg/mL (≈ 247 µM) | 10.82% | 3.6% | inactive | 16.79% | 500 µg/mL (≈ 989 µM) | 500 µg/mL (≈ 989 µM) | 8 mm | 9 mm |  | 500 µg/mL (≈ 989 µM) |  | 9 mm | 500 µg/mL (≈ 989 µM) | 10 mm | 500 µg/mL (≈ 989 µM) | 12 mm | 125 µg/mL (≈ 247 µM) | 11 mm | MIC (Salmonella typhimurium [14]; [24]): inactive; inhibition (Salmonella typhimurium [16]): inactive; MIC (Proteus vulgaris [17]): inactive; inhibition (Proteus vulgaris [20]): inactive
CN1C[C@](C#N)(C(=O)c2c[nH]c3ccccc23)[C@]2(C(=O)Nc3ccccc32)[C@@]12C(=O)Nc1ccccc12 | 9 mm | 500 µg/mL (≈ 1030 µM) | 20.91% | 17.46% | inactive | 33.5% | 500 µg/mL (≈ 1030 µM) | 125 µg/mL (≈ 256 µM) | 12 mm | 9 mm |  | 500 µg/mL (≈ 1030 µM) |  | 8 mm | 500 µg/mL (≈ 1030 µM) | 10 mm | 500 µg/mL (≈ 1030 µM) | 8 mm | 500 µg/mL (≈ 1030 µM) | 9 mm | MIC (Salmonella typhimurium [14]; [24]): inactive; inhibition (Salmonella typhimurium [16]): inactive; MIC (Proteus vulgaris [17]; MTCC 1771, 24 h): 500 µg/mL (≈ 1030 µM); inhibition zone (IZ) (Proteus vulgaris [20]): 8 mm
C=CCN1C(=O)[C@@]2(c3ccccc31)N(C)C[C@](C#N)(C(=O)c1c[nH]c3ccccc13)[C@]21C(=O)Nc2ccccc21 |  | 500 µg/mL (≈ 948 µM) | 8.81% | 5.61% | inactive | 16% | 1000 µg/mL (≈ 1900 µM) | 125 µg/mL (≈ 237 µM) | 12 mm | 10 mm | 62.5 µg/mL (≈ 118 µM) | 500 µg/mL (≈ 948 µM) | 16 mm | 9 mm |  | 9 mm | 1000 µg/mL (≈ 1900 µM) | 11 mm | 500 µg/mL (≈ 948 µM) | 9 mm | inhibition (Klebsiella aerogenes [1]): inactive; MIC (Proteus vulgaris [17]; MTCC 1771, 24 h): 1000 µg/mL (≈ 1900 µM); MIC (Klebsiella aerogenes [19]): inactive; inhibition zone (IZ) (Proteus vulgaris [20]): 9 mm
